# Test results published in patent publication US11648199B2 (AI Therapeutics, Inc, priority 2014, dated 2023).
# Like-named read-outs stand apart in the source and are kept apart here.
# Experiments:
# [1] = Observation for adverse effects / clinical signs after OPA dosing; conditions: for adverse effects / clinical signs: 1 mg/kg, up to 72 h after dosing
# Protocol: The oral dose was formulated using pharmaceutical oral liquid formulation Rapamune Oral® (Pfizer). […] An additional group of 6 mice received vehicle only (10% ethanol in water). […] At the 72-h necropsy, blood was obtained by cardiac puncture and the lungs removed.
# The time of dosing was recorded as 0. Animals in groups 2 and 3 were euthanized at 1 h after dosing.
# [2] = system: S6 phosphorylation (mTOR pathway); assay: Phosphorylated S6 by western blot in AML cells; assay type: cell-based, human; conditions: 20 nM, 24 hours (FIG. 7, top)
# [3] = 28-day repeat dose inhalation toxicokinetics, study 7300225; assay type: in vivo, SD rats; conditions: average of D28
# Text: Two sets of animals were used to perform the toxicokinetic measurements for this study.
# [4] = in vivo; conditions: Sprague-Dawley, rat, inhaled
# [5] = system: Phospho-S6 Ribosomal Protein (Ser240/244); assay: S6-P/total S6 western blot of rat lung homogenates after inhalation; assay type: in vivo, Sprague-Dawley rats; conditions: inhaled, target dose 0.354 mg/kg (FIG. 8B)
# Protocol: Lungs samples from each animal were collected and snap frozen. The individual frozen lung samples were homogenized (Qiagen TissueLyser LT according to manufacturer's protocols) in 1×RIPA Buffer with protease and phosphatase inhibitors. […] The Western blot images were analyzed by NIH imageJ v1.48 to generate the respective antibody reactivity/intensity and create the ratio of S6 phosphorylation (S6-P) to total S6 intensities for each lung sample. The S6-P/total S6 ratios (y-axis) for sample organized by timepoint group (X-axis) were plotted on a one grouping variable scatter plot vertical graph (GraphPad, version 4.0), all samples in groups are represented by filled in black dots (●) on the graph and average is shown by the horizontal line between the dots within each respective group (FIG. 8B).
# [6] = system: TSC2 deficient TRI-AML101 cell line; assay: Cell viability, 10 point dose response, CellTiter-Glo; conditions: 72 hours after compound addition, relative to DMSO control (FIG. 7, bottom)
# Protocol: Two thousand cells in 50 uL of growth media (DMEM, 10% FBS, and 1% Penicillin/Streptomycin) were plated per well in a 96 well plate. […] 72 hours after compound addition, relative cell viability was determined by CellTiter-Glo® luminescence assay (Promega) and expressed as a percentage relative to vehicle (DMSO) treated control cells.
# [7] = Biodistribution of rapamycin via inhalation, first study (single dose and 5 days)
# [8] = Extrapolation of rat and dog inhalation data to human dosing; conditions: extrapolated
# [9] = system: phosphorylated S6 protein (mTOR activity); assay: Phosphorylated S6 in mouse lung after OPA or oral rapamycin; assay type: in vivo, C57bl/6 mice
# Text: To validate this approach, we used the presence of phosphorylated S6 protein in murine lung tissue as a biomarker for mTOR activity. In the mouse strain used (C57b1/6), the mouse airway and alveolar epithelial cells have constitutively active (phosphorylated, “p”) S6 protein. The S6 protein is typically phosphorylated by S6K which is downstream of mTORC1 and is activated, for example, downstream of growth factors such as epidermal growth factor (EGF), AKT, ERK, and RSK. mTORC1 promotes cell growth and proliferation by stimulating anabolic processes such as biosynthesis of lipids, proteins, and organelles, and suppressing catabolic processes such as autophagy.
# [10] = sirolimus in lymphangioleiomyomatosis; cited from earlier work
# [11] = IV 10 mg/kg, 24 hours after single dose; cited from earlier work
# [12] = Lung concentration of rapamycin after inhalation, Study Day 1; assay type: in vivo, Sprague-Dawley rats
# Text: The results of this initial study were replicated and expanded in additional rat studies and dog studies. […] Two sets of animals were used to perform the toxicokinetic measurements for this study.
# [13] = 24 hours after 14th dose, cited from earlier work
# [14] = clinical use; cited from earlier work
# [15] = emitted dose 50 ug, repeat inhaled daily dose 5 ug
# [16] = emitted dose 2850 ug, repeat inhaled daily dose 285 ug
# [17] = inhaled 0.0360 mg/kg/day once a day, trough day 5
# [18] = inhaled 1.0000 mg/kg/day once a day, trough day 5
# [19] = emitted dose 87 ug, repeat inhaled daily dose 35 ug
# [20] = emitted dose 175 ug, repeat inhaled daily dose 70 ug
structure (smiles),measurement,setting,value
"CO[C@H]1C[C@@H]2CC[C@@H](C)[C@@](O)(O2)C(=O)C(=O)N2CCCC[C@H]2C(=O)O[C@H]([C@H](C)C[C@@H]2CC[C@@H](O)[C@H](OC)C2)CC(=O)[C@H](C)/C=C(\C)[C@@H](O)[C@@H](OC)C(=O)[C@H](C)C[C@H](C)/C=C/C=C/C=C/1C [Rapamycin, (3 S,6R,7E,9R,10R,12R,14S,15E,17E,19E,21S,23 S,26R,27R,34aS)-9,10,12,13,-14,21,22,23,24,25,26,27,32,33,34,34a-hexadecahydro-9,27-dihydroxy-3-[(1R)-2-[(1S,3R,4R)-4-hydroxy-3-methoxycyclohexyl]-1-methylethyl]-10,21-dimethox-y-6,8,12,14,20,26-hexamethyl-23,27-epoxy-3H-pyrido[2,1-c][1,4]oxaazacyclohentriacontine-1,5,11,28,29(4H,6H,31H)-pentone]",adverse effects / clinical signs,[1],No significant clinical signs were observed
same,adverse effects / clinical signs,[1]; listed as rapamycin,No adverse effects were observed
same,acute toxicity to lung tissue,"[1]; OPA 1 mg/kg, relatively high amounts in lung",not acutely toxic to lung tissue
same,S6 phosphorylation,[2],potently inhibits S6 phosphorylation
same,Blood trough levels,[3]; [15],2 ng/mL
same,Max blood levels,[3]; [15],7.6 ng/mL
same,Max blood levels,"[3]; emitted dose 1425 ug, repeat inhaled daily dose 143 ug",70.5 ng/mL
same,Blood trough levels,[3]; [16],21.0 ng/mL
same,Max blood levels,[3]; [16],77.8 ng/mL
same,concentration at 12 h,"[4]; lung, 0.036 mg/kg/day",95 ng/g
same,concentration at 12 h,"[4]; lung, 1 mg/kg/day",~14800 ng/g
same,concentration at 12 h,"[4]; whole blood, 0.036 mg/kg/day",4 ng/mL
same,concentration at 12 h,"[4]; whole blood, 1 mg/kg/day",645 ng/mL
same,S6 phosphorylation in lung tissue,[5],Inhibits S6 Phosphorylation
same,lowest concentration at which viability was inhibited,[6],0.05 nM
same,Rapamycin in Blood,[7]; [17],4 ng/mL
same,Rapamycin in Lung,[7]; [17],87 ng/g
same,Rapamycin in Blood,[7]; [18],746 ng/mL
same,Rapamycin in Lung,[7]; [18],17163 ng/g
same,Rapamycin in Lung,"[7]; inhaled 1.00 mg/kg/day, 12 hrs after a single dose",14831 ng/g
same,Blood trough levels,[8]; [19],0.15 ng/mL
same,Lung 24 hr trough levels,[8]; [19],2 ng/g
same,Max blood levels,[8]; [19],0.65 ng/mL
same,Blood trough levels,[8]; [20],0.3 ng/mL
same,Lung 24 hr trough levels,[8]; [20],4 ng/g
same,Max blood levels,[8]; [20],1.3 ng/mL
same,level of phosphorylated S6 (pS6) in lung,"[9]; OPA 1 mg/kg, 1 hr (FIG. 8A)",reduced substantially
same,level of phosphorylated S6 (pS6) in lung,"[9]; OPA 1 mg/kg, 72 hr (FIG. 8A)",remained suppressed
same,level of phosphorylated S6 (pS6) in lung,"[9]; oral gavage 1 mg/kg, 1 hr (FIG. 8A)",reduced substantially
same,blood concentrations reported,[10],5 to 15 ng/mL
same,Rapamycin in Blood,[11],31 ng/mL
same,Rapamycin in Lung,[11],721 ng/g
same,concentration at 2 h post-dosing,"[12]; Sprague-Dawley, rat, lung, inhaled, target dose 11 ug Day 1, 2 hr post-dosing, read-out: Avg Lung rapa",250 ng/g
same,concentration at 4 h post-dosing,"[12]; Sprague-Dawley, rat, lung, inhaled, target dose 11 ug Day 1, 4 hr post-dosing, read-out: Avg Lung rapa",192 ng/g
same,concentration at 12 h post-dosing,"[12]; Sprague-Dawley, rat, lung, inhaled, target dose 11 ug Day 1, 12 hr post-dosing, read-out: Avg Lung rapa",95 ng/g
same,Avg Lung rapa,"[12]; target dose 11 ug Day 1, immediate post-dosing",560 ng/g
same,Avg Lung rapa,"[12]; target dose 11 ug Day 1, midway dosing",462 ng/g
same,Rapamycin in Blood,[13]; IV 0.04 mg/kg/day,9.4 ng/mL
same,Rapamycin in Lung,[13]; IV 0.04 mg/kg/day,219 ng/g
same,Rapamycin in Blood,[13]; IV 0.08 mg/kg/day,15.0 ng/mL
same,Rapamycin in Lung,[13]; IV 0.08 mg/kg/day,457 ng/g
same,Rapamycin in Blood,[13]; IV 0.40 mg/kg/day,19.6 ng/mL
same,Rapamycin in Lung,[13]; IV 0.40 mg/kg/day,868 ng/g
same,Rapamycin in Blood,[13]; oral 0.4 mg/kg/day,0.8 ng/mL
same,Rapamycin in Lung,[13]; oral 0.4 mg/kg/day,42 ng/g
same,Rapamycin in Blood,[13]; oral 0.8 mg/kg/day,2.1 ng/mL
same,Rapamycin in Lung,[13]; oral 0.8 mg/kg/day,59 ng/g
same,lung toxicity,[14],"pulmonary toxicity, usually in the form of interstitial pneumonitis"
